In patent US20200290950A1, “ALKAMIDE COMPOUNDS AND USES THEREOF” (NORTH CAROLINA STATE UNIVERSITY, priority 2017, published 2020):

Assays:
RBL-2H3 cells = assay: LDH cytotoxicity assay; format: cell-based, rat; conditions: overnight treatment
Method: FIG. 7. A15 is not cytotoxic to RBL-2H3 cells. RBL-2H3 cells were plated and incubated overnight prior to stimulation. Cells were treated overnight with the indicated concentrations of A15 10 μg/mL cycloheximide as a positive control. Supernatants were collected and analyzed for LDH release using the Pierce LDH Cytotoxicity Kit. […] Statistical analysis was performed using a one-way ANOVA with Dunnett's post-hoc test, ***p<0.001.
RBL-2H3 cells were seeded into 96-well plates and incubated overnight prior to treatment with a range of A15 concentrations or 10 μg/mL cycloheximide. Supernatants were collected after 18 hr and analyzed for lactate dehydrogenase (LDH) activity using the commercially available Pierce LDH Cytotoxicity Assay Kit according to the manufacturer's instructions (Thermo Fisher Scientific). Briefly, in a 96-well plate, 50 μL of supernatant were incubated with 50 μL of reaction mixture containing a tetrazolium salt that is reduced to formazan in the presence LDH for 30 min protected from light. 50 μL of stop solution was added, and the absorbance was read at 490 nm with absorbance at 690 nm subtracted to remove background absorbance. LDH release from vehicle treated cells was used to determine spontaneous LDH release. Additionally, lysis buffer was used to determine maximum LDH release.

TRPA1 = molecular target: T1, TRPA1 (Mus musculus, UniProt Q8BLA8); assay: Calcium response of DRG neurons to mustard (allyl isothiocyanate); format: cell-based; conditions: cultured DRG neurons, fluorescence microscopy
T1 construct: The receptors TRPA1 and TRPV1 are expressed on neurons; from tissue; host or cells: primary dorsal root ganglion neurons from mice
Excerpt: FIG. 11. Calcium response from DRG sensory neurons to alkamide of transient receptors. Mustard a TRPA1-receptor agonist activates DRG neurons in gray (A) and capsaicin, an agonist for TRPV1-receptors in the DRG neurons in red (B). Ligand A15 inhibits both TRPA1 and TRPV1 receptors activation in orange; however, 85Y a synthetic ligand only reduces the inhibition of TRPA1 but not TRPV1 receptors in blue. Total number of neurons (n)=135-145; p≤0.05.
Several different model systems were utilized for these experiments. In one model, dorsal root ganglia were obtained from mice and the neurons cultured in vitro. The neurons were then stimulated in the presence/absence of A15 and YM8-85 and the calcium responses monitored by fluorescence microscopy. In the second model, the alkamides were applied to mouse skin in mineral oil. The reactions of these mice to heat, cold, and tactile stimulation was then compared with mice that had not received treatment with A15. […] Alkamides were applied to sensitized animals and then ear swelling and bouts of scratching were monitored.
In vitro DRG neuron responses. […] Neurons were stimulated with mustard (allyl isothiocyanate) (A) an agonist for the receptor TRPA-1 or capsaicin (B) an agonist for the receptor TRPV-1 and calcium responses were measured in individual neurons by fluorescence microscopy. […]

T1 sequence (Q8BLA8 whole entry): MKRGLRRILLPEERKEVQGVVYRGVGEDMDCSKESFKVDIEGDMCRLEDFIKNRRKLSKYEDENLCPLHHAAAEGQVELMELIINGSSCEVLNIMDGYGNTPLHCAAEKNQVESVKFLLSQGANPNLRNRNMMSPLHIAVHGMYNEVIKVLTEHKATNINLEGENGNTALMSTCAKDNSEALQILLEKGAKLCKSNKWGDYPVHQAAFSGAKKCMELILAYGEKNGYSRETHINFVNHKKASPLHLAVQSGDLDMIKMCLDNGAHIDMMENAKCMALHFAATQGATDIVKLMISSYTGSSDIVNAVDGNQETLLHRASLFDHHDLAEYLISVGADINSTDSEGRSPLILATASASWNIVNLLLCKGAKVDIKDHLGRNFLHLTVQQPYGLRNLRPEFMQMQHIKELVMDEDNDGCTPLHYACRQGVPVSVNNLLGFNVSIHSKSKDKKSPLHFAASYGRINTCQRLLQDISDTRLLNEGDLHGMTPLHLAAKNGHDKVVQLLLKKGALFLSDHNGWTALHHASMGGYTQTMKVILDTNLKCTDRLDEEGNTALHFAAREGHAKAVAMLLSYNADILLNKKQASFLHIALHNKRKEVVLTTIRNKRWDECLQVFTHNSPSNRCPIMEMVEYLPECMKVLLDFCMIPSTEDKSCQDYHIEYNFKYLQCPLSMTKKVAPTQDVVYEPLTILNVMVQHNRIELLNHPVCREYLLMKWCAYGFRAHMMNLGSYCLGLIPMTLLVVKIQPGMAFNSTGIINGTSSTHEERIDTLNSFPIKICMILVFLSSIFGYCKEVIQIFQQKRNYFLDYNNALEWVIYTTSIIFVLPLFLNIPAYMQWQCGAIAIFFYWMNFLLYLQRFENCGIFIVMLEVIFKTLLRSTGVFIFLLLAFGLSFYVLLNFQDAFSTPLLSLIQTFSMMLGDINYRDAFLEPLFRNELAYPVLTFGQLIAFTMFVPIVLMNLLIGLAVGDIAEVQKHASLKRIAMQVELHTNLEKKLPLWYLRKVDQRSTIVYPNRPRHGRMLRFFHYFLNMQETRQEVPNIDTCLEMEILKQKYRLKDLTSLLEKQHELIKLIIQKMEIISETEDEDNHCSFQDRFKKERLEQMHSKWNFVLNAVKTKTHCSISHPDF

- DRG neuron calcium response to mustard (TRPA1 agonist) (TRPA1): inhibit
SMILES: CCCCCCC/C=C/C=C/C(=O)NCC(C)C [A15, (2E,4E)-N-Isobutyldodeca-2,4-dienamide]
- cytotoxic activity (LDH release) (RBL-2H3 cells): no significant cytotoxic activity
